{
  "source": "patent US11773368B2",
  "about": "“Culture method for differentiating primordial germ cells into functionally mature oocytes” (TOKYO UNIVERSITY OF AGRICULTURE, priority 2015, dated 2023)",
  "key": {"[1]": {"system": "cumulus-oocyte complexes (COCs)", "assay": "In vitro maturation to egg", "assay_type": "cell-based, mouse", "method": "The cumulus-oocyte complexes (COCs) were collected from the secondary follicles obtained by “3. In vitro growth culture of secondary follicle” described above. Then, COCs were cultured with α-MEM containing 5% FBS, 0.1 IU/mL FSH, 1.2 IU/mL chorionic gonadotropin (Gonatropin, ASKA Pharmaceutical), and […] (Gibco, Thermo Fisher Scientific Inc.) for 17 hours. Control COCs were collected from adult female mice 44 hours after the injection with equine CG (Serotropin; ASKA Pharmaceutical). The obtained COCs obtained from the adult female mice, in vivo-derived COCs, were cultured with α-MEM containing 5% FBS, 0.1 IU/mL FSH, 1.2 IU/mL chorionic gonadotropin, and 4 ng/mL epidermal growth factor in the same way to in vitro-derived COCs. As a result of in vitro maturation, in (ii) SPS group, (iv) FBS/SPS group, and (v) FBS/ICI group, 77 to 95% oocytes released the first polar body after 17 hours and became MII oocytes (FIGS. 11b and c)."}, "[2]": {"system": "primordial germ cells in gonads from female mouse fetuses at 12.5 dpc", "assay": "In vitro organ culture of gonad (secondary follicle formation)", "assay_type": "cell-based", "method": "For the medium of the organ culture, the basal medium supplemented with FBS (Gibco, Thermo Fisher Scientific Inc.), SPS (SAGE In vitro Fertilization), the estrogen receptor antagonist, 7α, 17β-[9-([4,4,5,5,5-pentafluoropentyl]sulfinyl)nonyl]estra-1,3,5(10)-triene-3,17-diol; ICI 182,780 (ICI; Tocris Bioscience), 4-hydroxytamoxifen (Sigma-Aldrich), and MPP (Methylpiperidino pyrazole; Cayman Chemical) were added at the indicated concentrations for each experimental group below. The α-MEM medium (Gibco, Thermo Fisher Scientific Inc.) supplemented with 1.5 mM 2-O-α-d glucopyranosyl-1-ascorbic acid (Tokyo Chemical Industry), 10 units/mL penicillin, and 10 μg/mL streptomycin (Sigma-Aldrich) was used as a basal medium (referred to the basal medium hereafter as α-MEM).\nICI 182,780 and 4-hydroxytamoxifen was prepared as follows. ICI 182,780 and 4-hydroxytamoxifen was diluted to 100 mM using DMSO, and cryopreserved stock was prepared. MPP was diluted to 10 mM using DMSO, and cryopreserved stock was prepared. 1 mM solutions of ICI 182, 780 and 4-hydroxytamoxifen were prepared by diluting the 100 mM stocks 100-fold with DMSO just before use and were added to the medium at the indicated final concentrations for each experimental group. MPP was added to the medium at 1 μM as the final concentration just before use.\nThe gonads for the organ culture were collected with mesonephros or without mesonephros from female mouse fetuses at 12.5 dpc (FIG. 1a). 2.2 ml of the medium was added to each 6-well culture plate used for the organ culture. Transwell®-COL membrane (3.0-μm pore size, 24-mm diameter; Corning) was put on each well of the 6-well culture plate. The gonads were transferred on the membrane and were cultured for 17 days at 37° C. under 5% CO2 and 95% air. Approximately half of the medium in each well was replaced with fresh medium every other day. In the example in which the gonad was cultured with mesonephros, mesonephros was removed from the gonad at day 7 of the organ culture.\nThe in vitro organ culture of the gonads was performed according to the following conditions described below. The gonads were cultured for total 17 days in each conditions below (FIG. 2):\n(i) culture for the complete 17 days period in 10% FBS containing α-MEM (α-MEM+FBS; FBS group);\n(ii) culture for the complete 17 days period in 10% SPS containing α-MEM (α-MEM+SPS; SPS group);\n(iii) culture for the complete 17 days period in 10% KSR containing α-MEM (α-MEM+KSR; KSR group);\n(iv) culture in 10% FBS containing α-MEM for 4 days with a shift to 10% SPS containing α-MEM for 6 days from day 5 and a shift to 10% FBS containing α-MEM until day 17 from day 11 (αMEM+FBS/SPS; FBS/SPS group);\n(v) culture in 10% FBS containing α-MEM for 4 days with a shift to 10% FBS containing α-MEM with the addition of 10 nM, 100 nM, 1 μM, 5 μM, or 10 μM (final concentration) ICI for 6 days from day 5 and a shift to 10% FBS containing α-MEM until day […] (αMEM+FBS/10 nM ICI; FBS/10 nM ICI group, αMEM+FBS/100 nM ICI; FBS/100 nM ICI group, αMEM+FBS/1 μM ICI; FBS/1 μM ICI group, αMEM+FBS/5 μM ICI; FBS/5 μM ICI group, or αMEM+FBS/10 μM ICI; FBS/10 μM ICI group);\n(vi) culture in 10% FBS containing α-MEM for 4 days with a shift to 10% FBS containing α-MEM with the addition of 1 μM (final concentration) 4-hydroxytamoxifen for 6 days from day 5 and a shift to 10% FBS containing α-MEM until day 17 from day 11 (αMEM+FBS/1 μM Tamoxifen; FBS/1 μM Tamoxifen group);\n(vii) culture in 10% FBS containing α-MEM for 4 days with a shift to 10% FBS containing α-MEM with the addition of 1 μM (final concentration) MPP for 6 days from day 5 and a shift to 10% FBS containing α-MEM until day 17 from day 11 (αMEM+FBS/1 μM MPP; FBS/1 μM MPP group).\nVitrification and warming were conducted as follows by reference to Wang, X. et al., “Successful in vitro culture of pre-antral follicles derived from vitrified murine ovarian tissue: oocyte maturation, fertilization, and live births.” Reproduction 141, 183-191 (2011). […]"}, "[3]": {"settings": "FBS/1 μM ICI group (ICI day 5-11), 19 cultured gonads"}, "[4]": {"settings": "FBS/5 μM ICI group (ICI day 5-11), 6 cultured gonads"}, "[5]": {"settings": "FBS/10 μM ICI group (ICI day 5-11), 6 cultured gonads"}, "[6]": {"settings": "Vitrification FBS/1 μM ICI (vitrified-warmed gonads), 4 cultured gonads"}},
  "note": "Entries after “also recorded” stand apart in the source; their conditions may differ.",
  "data": [
    {"smiles": "C[C@]12CC[C@@H]3c4ccc(O)cc4C[C@@H](CCCCCCCCC[S+]([O-])CCCC(F)(F)C(F)(F)F)[C@H]3[C@@H]1CC[C@@H]2O", "note": "(stereo partly drawn) [ICI, 7α, 17β-[9-([4,4,5,5,5-pentafluoropentyl]sulfinyl)nonyl]estra-1,3,5(10)-triene-3,17-diol]", "values": [
      {"measurement": "No. of oocytes matured into MII, proportion to the number of collected follicles", "setting": "[1]; FBS/1 μM ICI group (ICI day 5-11)", "value": 50.1, "unit": "%"},
      {"measurement": "No. of oocytes matured into MII", "setting": "[1]; [3]", "value": 321},
      {"measurement": "No. of oocytes matured into MII, proportion to the number of collected follicles", "setting": "[1]; FBS/5 μM ICI group (ICI day 5-11)", "value": 53.8, "unit": "%"},
      {"measurement": "No. of oocytes matured into MII", "setting": "[1]; [4]", "value": 168},
      {"measurement": "No. of oocytes matured into MII, proportion to the number of collected follicles", "setting": "[1]; FBS/10 μM ICI group (ICI day 5-11)", "value": 50.7, "unit": "%"},
      {"measurement": "No. of oocytes matured into MII", "setting": "[1]; [5]", "value": 256},
      {"measurement": "No. of oocytes matured into MII, proportion to the number of collected follicles", "setting": "[1]; Vitrification FBS/1 μM ICI (vitrified-warmed gonads)", "value": 64.9, "unit": "%"},
      {"measurement": "No. of oocytes matured into MII", "setting": "[1]; [6]", "value": 37},
      {"measurement": "follicle morphology of the ovary under an optical microscope", "setting": "[2]; (v) FBS/ICI group, FIG. 3d (10 μM ICI)", "value": "abnormalities were significantly improved"},
      {"measurement": "number of the collected secondary follicles", "setting": "[2]; (v) ICI group, 10 nM, 100 nM, 1 μM, 5 μM or 10 μM ICI day 5-11, FIG. 4", "value": "increased depending on the ICI concentration; also recorded: significantly increased compared to FBS group"},
      {"measurement": "No. of collected follicles", "setting": "[2]; [3]", "value": 641},
      {"measurement": "No. of collected follicles", "setting": "[2]; [4]", "value": 312},
      {"measurement": "No. of collected follicles", "setting": "[2]; [5]", "value": 505},
      {"measurement": "No. of collected follicles", "setting": "[2]; [6]", "value": 57},
      {"measurement": "follicles obtained from one ovary", "setting": "[2]; vitrified and warmed gonads, FBS/1 μM ICI conditions", "value": "about 14"}
    ]}
  ]
}
